Measured values published in patent US20060069132A1, “Azolecarboxamide herbicides” (priority 2004, published 2006).

Tests used:
rice [1] = test: Test B pre-/postemergence herbicide test; assay type: in vivo, Oryza sativa; conditions: 0 = no effect, 100 = complete control, preemergence; for Rice plant response rating (0 to 100 scale): 125 g ai/ha; for Plant response rating, Rice: 500 g ai/ha, visual rating
Procedure, shortened: (§1)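 Pre: seeds sown, then sprayed. Post: 1–4-leaf plants (2–18 cm) sprayed at the same time. Paddy: flooded, treated at 2-leaf stage. Formulation: non-phytotoxic solvent with surfactant. Greenhouse 13–15 days; visual 0–100 score relative to controls.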

[2] = test system: small flower umbrella sedge; test: Test B flooded paddy test; assay type: in vivo, Cyperus difformis; conditions: 1000 g ai/ha, scale 0 to 100 (0 no effect, 100 complete control)
Procedure, shortened: (§2)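 Plants grow to 1- to 4-leaf stage (2–18 cm) for postemergence spraying, or to 2-leaf stage for the paddy test. Formulated compound is applied. Greenhouse holding lasts 13–15 days. Response is scored visually relative to controls, 0 no effect to 100 complete control; a dash means no result.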

morningglory [3] = test: Test B pre-/postemergence herbicide test; assay type: in vivo, Ipomoea coccinea
Procedure, shortened: (§3)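 Species tested were Echinochloa crus-galli, Ipomoea coccinea, Xanthium strumarium and Oryza sativa, treated both before emergence and at the 1- to 4-leaf stage; rice and barnyardgrass were also tested under flooding at 2 leaves. Greenhouse incubation lasted 13–15 days before visual 0–100 scoring.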

velvetleaf [4] = test: Test B pre-/postemergence herbicide test; assay type: in vivo, Abutilon theophrasti
Procedure, shortened: as §1

velvetleaf [5] = test: Test A pre-/postemergence herbicide test; assay type: in vivo, Abutilon theophrasti
Procedure, shortened: (§4)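 Plants are held in greenhouse about ten days after treatment, then compared with untreated controls and scored 0 (no effect) to 100 (complete control). Preemergence dosing is a directed soil spray on sown sandy loam; postemergence dosing is spray to runoff at 2–10 cm height.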

barnyardgrass [6] = test: Test B pre-/postemergence herbicide test; assay type: in vivo, Echinochloa crus-galli
Procedure, shortened: as §3

large crabgrass [7] = test: Test A pre-/postemergence herbicide test; assay type: in vivo, Digitaria sanguinalis
Procedure, shortened: as §4

giant foxtail [8] = test: Test A pre-/postemergence herbicide test; assay type: in vivo, Setaria faberi
Procedure, shortened: as §4

large crabgrass [9] = test: Test B pre-/postemergence herbicide test; assay type: in vivo, Digitaria sanguinalis
Procedure, shortened: as §1

wild oat = test: Test B postemergence herbicide test; assay type: in vivo, Avena fatua
Procedure, shortened: (§5)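 Formulated test chemicals went onto postemergence plants measuring 2 to 18 cm, at one to four leaves. For the paddy assay, species had reached two leaves. Scoring took place 13–15 days later by eye, relative to untreated plants, using 0 for no effect up to 100 for full control.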

barnyardgrass [10] = test: Test A pre-/postemergence herbicide test; assay type: in vivo, Echinochloa crus-galli
Procedure, shortened: as §4

pigweed = test: Test B pre-/postemergence herbicide test; assay type: in vivo, Amaranthus retroflexus
Procedure, shortened: as §1

redroot pigweed = test: Test A pre-/postemergence herbicide test; assay type: in vivo, Amaranthus retroflexus
Procedure, shortened: as §4

cocklebur = test: Test B pre-/postemergence herbicide test; assay type: in vivo, Xanthium strumarium
Procedure, shortened: as §3

rice [11] = test: Test B flooded paddy test; assay type: in vivo, Oryza sativa; conditions: 1000 g ai/ha, scale 0 to 100 (0 no effect, 100 complete control)
Procedure, shortened: as §2

lambsquarters = test: Test B pre-/postemergence herbicide test; assay type: in vivo, Chenopodium album
Procedure, shortened: as §1

barnyardgrass [12] = test: Test B flooded paddy test; assay type: in vivo, Echinochloa crus-galli; conditions: 1000 g ai/ha, scale 0 to 100 (0 no effect, 100 complete control)
Procedure, shortened: as §2

giant foxtail [13] = test: Test B pre-/postemergence herbicide test; assay type: in vivo, Setaria faberi
Procedure, shortened: as §1

wheat = test: Test B postemergence herbicide test; assay type: in vivo, Triticum aestivum; design: key to Wheat plant response rating: 0 = no effect, 100 = complete control
Procedure, shortened: as §5

corn = test: Test B pre-/postemergence herbicide test; assay type: in vivo, Zea mays
Procedure, shortened: as §1

blackgrass = test: Test B postemergence herbicide test; assay type: in vivo, Alopecurus myosuroides
Procedure, shortened: as §2

Surinam grass = test: Test B pre-/postemergence herbicide test; assay type: in vivo, Urochloa decumbens
Procedure, shortened: as §1

ducksalad = test: Test B flooded paddy test; assay type: in vivo, Heteranthera limosa; conditions: 1000 g ai/ha, scale 0 to 100 (0 no effect, 100 complete control)
Procedure, shortened: as §2

morningglory [14] = test: Test A pre-/postemergence herbicide test; assay type: in vivo, Ipomoea spp.
Procedure, shortened: as §4

[15] = 125 g ai/ha; 0 = no effect, 100 = complete control; preemergence
[16] = 125 g ai/ha; visual rating, scale 0 (no effect) to 100 (complete control); postemergence
[17] = 500 g ai/ha; visual rating, 0 = no effect, 100 = complete control; preemergence
[18] = postemergence, 500 g ai/ha; scale 0 to 100, 0 is no effect, 100 is complete control
[19] = Postemergence, 500 g ai/ha, 0 to 100 scale, 0 no effect, 100 complete control
[20] = Postemergence, 2000 g ai/ha, 0 to 100 scale, 0 no effect, 100 complete control
[21] = Preemergence, 2000 g ai/ha, visual rating, 0 to 100 scale (0 no effect, 100 complete control)
[22] = preemergence, 500 g ai/ha, visual injury, 0 to 100 scale (0 no effect, 100 complete control)
[23] = postemergence, 125 g ai/ha; visual rating, scale 0 (no effect) to 100 (complete control)

CCn1nc(C(C)(C)C)cc1C(=O)Nc1cncc(C(=O)NCC(F)(F)F)n1 [Compound 291]
Rice plant response rating (0 to 100 scale) (rice [1]): 0
Plant response rating, Rice (rice [1]): 0
Sedge, Umbrella plant response rating [2]: 0
Morningglory plant response rating (0 to 100 scale) (morningglory [3]; [15]): 0
Morningglory plant response rating (morningglory [3]; [16]): 0
Plant response rating, Morningglory (morningglory [3]; [17]): 0
Morningglory plant response rating (morningglory [3]; [18]): 40
Velvetleaf plant response rating (velvetleaf [4]; [16]): 0
Plant response rating, Velvetleaf (velvetleaf [4]; [17]): 0
Velvetleaf plant response rating (velvetleaf [4]; [18]): 60
Velvetleaf plant response rating (velvetleaf [5]; [19]): 5
Plant response rating, Velvetleaf (velvetleaf [5]; [20]): 10
Velvetleaf plant response rating (velvetleaf [5]; [21]): 0
Velvetleaf plant response rating (velvetleaf [5]; [22]): 0
Barnyardgrass plant response rating (0 to 100 scale) (barnyardgrass [6]; [15]): 0
Barnyardgrass plant response rating (barnyardgrass [6]; [16]): 0
Plant response rating, Barnyardgrass (barnyardgrass [6]; [17]): 0
Barnyardgrass plant response rating (barnyardgrass [6]; [18]): 30
Crabgrass, Large plant response rating (large crabgrass [7]; [19]): 5
Plant response rating, Crabgrass, Large (large crabgrass [7]; [20]): 25
Crabgrass, Large plant response rating (large crabgrass [7]; [21]): 10
Crabgrass, Large plant response rating (large crabgrass [7]; [22]): 0
Foxtail, Giant plant response rating (giant foxtail [8]; [19]): 30
Plant response rating, Foxtail, Giant (giant foxtail [8]; [20]): 75
Foxtail, Giant plant response rating (giant foxtail [8]; [21]): 0
Foxtail, Giant plant response rating (giant foxtail [8]; [22]): 0
Crabgrass, Large plant response rating (0 to 100 scale) (large crabgrass [9]; [15]): 0
Crabgrass, Large plant response rating (large crabgrass [9]; [16]): 0
Plant response rating, Crabgrass, Large (large crabgrass [9]; [17]): 0
Crabgrass, Large plant response rating (large crabgrass [9]; [18]): 30
Oat, Wild plant response rating (wild oat; [16]): 10
Oat, Wild plant response rating (wild oat; [18]): 20
Barnyardgrass plant response rating (barnyardgrass [10]; [19]): 25
Plant response rating, Barnyardgrass (barnyardgrass [10]; [20]): 40
Barnyardgrass plant response rating (barnyardgrass [10]; [21]): 25
Barnyardgrass plant response rating (barnyardgrass [10]; [22]): 0
Pigweed plant response rating (0 to 100 scale) (pigweed; [15]): 0
Pigweed plant response rating (pigweed; [16]): 0
Plant response rating, Pigweed (pigweed; [17]): 0
Pigweed plant response rating (pigweed; [18]): 30
Pigweed plant response rating (redroot pigweed; [19]): 20
Plant response rating, Pigweed (redroot pigweed; [20]): 30
Pigweed plant response rating (redroot pigweed; [21]): 35
Pigweed plant response rating (redroot pigweed; [22]): 0
Cocklebur plant response rating (0 to 100 scale) (cocklebur; [15]): 0
Cocklebur plant response rating (cocklebur; [16]): 0
Plant response rating, Cocklebur (cocklebur; [17]): 0
Cocklebur plant response rating (cocklebur; [18]): 10
Rice plant response rating (rice [11]): 0
Lambsquarters plant response rating (0 to 100 scale) (lambsquarters; [15]): 0
Lambsquarters plant response rating (lambsquarters; [16]): 20
Plant response rating, Lambsquarters (lambsquarters; [17]): 0
Lambsquarters plant response rating (lambsquarters; [18]): 60
Barnyardgrass plant response rating (barnyardgrass [12]): 0
Foxtail, Giant plant response rating (0 to 100 scale) (giant foxtail [13]; [15]): 0
Foxtail, Giant plant response rating (giant foxtail [13]; [16]): 10
Plant response rating, Foxtail, Giant (giant foxtail [13]; [17]): 0
Foxtail, Giant plant response rating (giant foxtail [13]; [18]): 80
Wheat plant response rating (wheat; [16]): 0
Wheat plant response rating (wheat; [18]): 0
Corn plant response rating (0 to 100 scale) (corn; [15]): 0
Corn plant response rating (corn; [16]): 0
Plant response rating, Corn (corn; [17]): 0
Corn plant response rating (corn; [18]): 60
Blackgrass plant response rating (blackgrass; [16]): 0
Blackgrass plant response rating (blackgrass; [18]): 10
Surinam Grass plant response rating (0 to 100 scale) (Surinam grass; [15]): 0
Surinam Grass plant response rating (Surinam grass; [16]): 0
Plant response rating, Surinam Grass (Surinam grass; [17]): 0
Surinam Grass plant response rating (Surinam grass; [18]): 60
Ducksalad plant response rating (ducksalad): 0
Morningglory plant response rating (morningglory [14]; [19]): 5
Plant response rating, Morningglory (morningglory [14]; [20]): 10
Morningglory plant response rating (morningglory [14]; [21]): 0
Morningglory plant response rating (morningglory [14]; [22]): 0

CCn1nc(C(C)(C)C)cc1C(=O)Nc1nc(C(=O)N(C)C)ccc1F [Compound 277]
Rice plant response rating (0 to 100 scale) (rice [1]): 0
Plant response rating, Rice (rice [1]): 20
Sedge, Umbrella plant response rating [2]: 0
Morningglory plant response rating (0 to 100 scale) (morningglory [3]; [15]): 0
Plant response rating, Morningglory (morningglory [3]; [17]): 0
Morningglory plant response rating (morningglory [3]; [23]): 0
Morningglory plant response rating (morningglory [3]; [18]): 20
Velvetleaf plant response rating (0 to 100 scale) (velvetleaf [4]; [15]): 0
Plant response rating, Velvetleaf (velvetleaf [4]; [17]): 40
Velvetleaf plant response rating (velvetleaf [4]; [23]): 20
Velvetleaf plant response rating (velvetleaf [4]; [18]): 20
Velvetleaf plant response rating (velvetleaf [5]; [19]): 25
Plant response rating, Velvetleaf (velvetleaf [5]; [20]): 30
Velvetleaf plant response rating (velvetleaf [5]; [21]): 45
Velvetleaf plant response rating (velvetleaf [5]; [22]): 5
Barnyardgrass plant response rating (0 to 100 scale) (barnyardgrass [6]; [15]): 0
Plant response rating, Barnyardgrass (barnyardgrass [6]; [17]): 0
Barnyardgrass plant response rating (barnyardgrass [6]; [23]): 0
Barnyardgrass plant response rating (barnyardgrass [6]; [18]): 0
Crabgrass, Large plant response rating (large crabgrass [7]; [19]): 0
Plant response rating, Crabgrass, Large (large crabgrass [7]; [20]): 0
Crabgrass, Large plant response rating (large crabgrass [7]; [21]): 25
Crabgrass, Large plant response rating (large crabgrass [7]; [22]): 0
Foxtail, Giant plant response rating (giant foxtail [8]; [19]): 0
Plant response rating, Foxtail, Giant (giant foxtail [8]; [20]): 0
Foxtail, Giant plant response rating (giant foxtail [8]; [21]): 55
Foxtail, Giant plant response rating (giant foxtail [8]; [22]): 0
Crabgrass, Large plant response rating (0 to 100 scale) (large crabgrass [9]; [15]): 0
Plant response rating, Crabgrass, Large (large crabgrass [9]; [17]): 0
Crabgrass, Large plant response rating (large crabgrass [9]; [23]): 0
Crabgrass, Large plant response rating (large crabgrass [9]; [18]): 0
Oat, Wild plant response rating (wild oat; [23]): 10
Oat, Wild plant response rating (wild oat; [18]): 20
Barnyardgrass plant response rating (barnyardgrass [10]; [19]): 0
Plant response rating, Barnyardgrass (barnyardgrass [10]; [20]): 50
Barnyardgrass plant response rating (barnyardgrass [10]; [21]): 70
Barnyardgrass plant response rating (barnyardgrass [10]; [22]): 0
Pigweed plant response rating (0 to 100 scale) (pigweed; [15]): 60
Plant response rating, Pigweed (pigweed; [17]): 100
Pigweed plant response rating (pigweed; [23]): 0
Pigweed plant response rating (pigweed; [18]): 10
Pigweed plant response rating (redroot pigweed; [19]): 10
Plant response rating, Pigweed (redroot pigweed; [20]): 35
Pigweed plant response rating (redroot pigweed; [21]): 70
Pigweed plant response rating (redroot pigweed; [22]): 40
Cocklebur plant response rating (0 to 100 scale) (cocklebur; [15]): 0
Plant response rating, Cocklebur (cocklebur; [17]): 10
Cocklebur plant response rating (cocklebur; [23]): 0
Cocklebur plant response rating (cocklebur; [18]): 0
Rice plant response rating (rice [11]): 0
Lambsquarters plant response rating (0 to 100 scale) (lambsquarters; [15]): 40
Plant response rating, Lambsquarters (lambsquarters; [17]): 80
Lambsquarters plant response rating (lambsquarters; [23]): 20
Lambsquarters plant response rating (lambsquarters; [18]): 30
Barnyardgrass plant response rating (barnyardgrass [12]): 0
Foxtail, Giant plant response rating (0 to 100 scale) (giant foxtail [13]; [15]): 0
Plant response rating, Foxtail, Giant (giant foxtail [13]; [17]): 0
Foxtail, Giant plant response rating (giant foxtail [13]; [23]): 0
Foxtail, Giant plant response rating (giant foxtail [13]; [18]): 0
Wheat plant response rating (wheat; [23]): 20
Wheat plant response rating (wheat; [18]): 20
Corn plant response rating (0 to 100 scale) (corn; [15]): 0
Plant response rating, Corn (corn; [17]): 0
Corn plant response rating (corn; [23]): 0
Corn plant response rating (corn; [18]): 10
Blackgrass plant response rating (blackgrass; [23]): 10
Blackgrass plant response rating (blackgrass; [18]): 20
Surinam Grass plant response rating (0 to 100 scale) (Surinam grass; [15]): 0
Plant response rating, Surinam Grass (Surinam grass; [17]): 0
Surinam Grass plant response rating (Surinam grass; [23]): 0
Surinam Grass plant response rating (Surinam grass; [18]): 0
Ducksalad plant response rating (ducksalad): 0
Morningglory plant response rating (morningglory [14]; [19]): 0
Plant response rating, Morningglory (morningglory [14]; [20]): 0
Morningglory plant response rating (morningglory [14]; [21]): 0
Morningglory plant response rating (morningglory [14]; [22]): 0
